From patent US8765949B2, “CCR2 receptor antagonists and uses thereof” (Boehringer Ingelheim International GmbH, priority 2009, dated 2014)

What follows are molecules tested against T1, CCR2 (Homo sapiens, UniProt P41597) (assay: CCR2 receptor membrane binding assay ([125I]MCP-1, THP-1 membranes, SPA beads)). Conditions: dissociation constant hKi; THP-1 cell membranes, [125I]MCP-1, bound radioactivity after 8 h.
T1 construct: Membranes were prepared from THP-1 cells; endogenous in cells; host or cells: THP-1 (human acute monocytic leukaemia cells), membrane preparation
T1 sequence (P41597 1-360 isoform P41597-2): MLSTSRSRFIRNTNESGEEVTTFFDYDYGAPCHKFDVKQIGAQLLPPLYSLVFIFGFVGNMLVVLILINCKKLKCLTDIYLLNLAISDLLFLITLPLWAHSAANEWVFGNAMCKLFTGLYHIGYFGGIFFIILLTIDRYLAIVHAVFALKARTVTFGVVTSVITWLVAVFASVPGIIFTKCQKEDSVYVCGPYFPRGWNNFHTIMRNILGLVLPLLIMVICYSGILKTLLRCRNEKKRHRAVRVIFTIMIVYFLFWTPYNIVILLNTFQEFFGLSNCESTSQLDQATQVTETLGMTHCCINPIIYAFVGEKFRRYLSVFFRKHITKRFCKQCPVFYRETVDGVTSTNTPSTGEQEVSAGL
Method: The above exemplary substances have been tested for binding to CCR2 using a binding assay as outlined herein below:
THP-1 cells (human acute monocytic leukaemia cells) were cultured under standardized conditions at 37° C. and 5% CO2 in a humidified incubator. THP-1 cells were cultivated in RPMI 1640 medium (Gibco 21875) containing 1% MEM-NEAA (Gibso 11140) 2 mM L-glutamine, 1.5 g/L sodium bicarbonate, 4.5 g/L glucose, 10 mM HEPES and 1.0 mM sodium pyruvate, 90%; 10% fetal calf serum (FCS Gibco 10500-064).
Membranes were prepared from THP-1 cells. THP-1 cells were centrifuged at 300×g at 4° C. for 10 min. The cell pellet was resuspendet in Phosphate Buffer Saline (PBS, including 10 μM Pefabloc and a protease inhibitor mix ‘complete’, Boehringer Mannheim (1 tablet/50 ml)), to a concentration of […]. The membrane preparation was performed by disrupting the cells by nitrogen […] (at 50 bar, for 1 h) in a “Nitrogen Bombe” (Parr Instrument). Cell debris was removed by centrifugation (800×g at 4° C., 1 min). The supernatant was centrifuged at 80000×g, 4° C. for 30 min to sediment the cell membranes. Usually 50 mg of protein (Bradford assay) were yielded from 1×10E9 cells. The membranes were resuspendet in 25 mM HEPES, 25 mM MgCl2, 1 mM CaCl2, 10% Glycerine for storage in aliquots at −80° C. in 25 mM HEPES, 25 mM MgCl2, 1 mM CaCl2, 10% Glycerine and stored at −80° C.
Receptor Membrane Binding Assay:
Perkin Elmer NEX 332 Jod 125 MCP-1, Stock: 2200 Ci/mmol solved in 2000 μl assay buffer, stored at −20° C. THP-1 membrane were adjusted with 25 mM HEPES, pH 7.2; 5 mM MgCl2; 0.5 mM CaCl2; 0.2% BSA assay buffer to a concentration of 2.5 μg/15 μl. Amersham Biosciences PVT-WGA Beads (RPNQ0001) were adjusted with assay buffer to a concentration of 0.24 mg/30 μl. For preparation of the membrane-bead-suspension membranes and beads were incubated for 30 min at RT under rotation (60 rpm) with a ratio of 1:2. Test compounds dissolved in 100% DMSO to a concentration of 10 mM and are further diluted with 100% DMSO to 1 mM. All additional compound dilutions were obtained with assay buffer, final 1% DMSO. Compounds, membrane-bead-suspension and [125I]MCP-1 (ca. 25000 cpm/10 μl) were incubated. Bound radioactivity was determined by scintillation counter after 8 h. Determination of affinity of test compounds (dissociation constant hKi) is calculated by iterative fitting of experimental data using the “easy sys” program, which is based on law of mass action (Schittkowski K. (1994), Numerische Mathematik, Vol. 68, 129-142).

Ki	SMILES
63 nM	CO[C@H]1COCC[C@H]1NC1CCN(C(=O)c2nc(C)nc(NC[C@@H]3CCC[C@H](c4cccc(C)c4)O3)c2C)CC1 [Example 34]
142 nM	Cc1c(NCC2CCCC(c3ccccc3)O2)ncnc1C(=O)N1CCC(N2CCC(N(C)S(C)(=O)=O)CC2)CC1 (centres unmarked) [Example 10]
2 nM	CO[C@H]1COCC[C@H]1NC1CCN(C(=O)c2ncnc(NC[C@H]3CCC[C@@H](c4ccc(C(F)(F)F)cc4)O3)c2C)CC1 [Example 53]
8 nM	Cc1ccc([C@@H]2CCC[C@H](CNc3cc(C(=O)N4CCC(N5CCC(N(C)S(C)(=O)=O)CC5)CC4)ncn3)O2)cc1 [Example 28g]
7 nM	CO[C@@H]1COCC[C@@H]1NC1CCN(C(=O)c2ccnc(NC[C@H]3CCC[C@@H](c4ccc(C)cc4)O3)c2C)CC1 [Example 53a]
733 nM	Cc1ccc([C@H]2CCC[C@@H](CNc3ncnc(C(=O)N4CCC(N5CCC6(CC5)CC(C(=O)O)c5ccccc56)CC4)c3C)O2)cc1 (some centres unmarked) [Example 60]
20 nM	COC1COCCC1NC1CCN(C(=O)c2ncnc(NCC3CCCC(c4ccc(C(F)(F)F)o4)O3)c2C)CC1 (centres unmarked) [Example 28e]
0.8 nM	COc1nc(NC[C@H]2CCC[C@@H](c3ccc(OC(F)(F)F)cc3)O2)cc(C(=O)N2CCC(N[C@H]3CCOC[C@H]3OC)CC2)n1 [Example 53r]
27 nM	Cc1c(NC[C@@H]2CCC[C@H](c3ccccc3)O2)ncnc1C(=O)N1CCC(N2CCC(N(C)S(C)(=O)=O)CC2)CC1 (single isomer, unassigned) [Example 12]
16 nM	Cc1c(NC[C@H]2CCC[C@@H](c3ccc(C(F)(F)F)cc3)O2)ncnc1C(=O)N1CCC(N2CCC3(CC2)Cc2ccccc2O3)CC1 [Example 53y]
166 nM	CO[C@H]1COCC[C@H]1NC1CCN(C(=O)c2ncnc(NC[C@@H]3CCC[C@H](c4ccc(Cl)cc4)O3)c2C)CC1 [Example 44]
36 nM	Cc1c(NC[C@@H]2CCC[C@H](c3cccc(C(F)(F)F)c3)O2)ncnc1C(=O)N1CCC(N2CCC(N(C)S(C)(=O)=O)CC2)CC1 [Example 7]
11 nM	Cc1ccc([C@@H]2CCC[C@H](CNc3ncnc(C(=O)N4CCC(N5CCC(N(C)S(C)(=O)=O)CC5)CC4)c3C)O2)cc1 [Example 17]
190 nM	Cc1c(NC[C@@H]2CCC[C@H](c3ccc(Cl)cc3)O2)ncnc1C(=O)N1CCC(N2CCC(N(C)S(C)(=O)=O)CC2)CC1 [Example 6]
0.3 nM	CO[C@H]1COCC[C@H]1NC1CCN(C(=O)c2cc(NC[C@H]3CCC[C@@H](c4ccc(OC(F)(F)F)cc4)O3)nc(C(F)(F)F)n2)CC1 [Example 53m]
1130 nM	Cc1ccc(C2CCC[C@H](CNc3ncnc(C(=O)N4CCC(N5CCC(c6ccc(C(=O)O)cc6)C5)CC4)c3C)O2)cc1 (some centres unmarked) [Example 58]
148 nM	CO[C@@H]1COCC[C@@H]1NC1CCN(C(=O)c2ncnc(NC[C@@H]3CCC[C@H](c4cccc(C)c4)O3)c2C)CC1 [Example 33]
7 nM	CO[C@H]1COCC[C@H]1NC1CCN(C(=O)c2ncnc(NC[C@H]3CCC[C@@H](c4cccc(C)c4)O3)c2C)CC1 [Example 48]
162 nM	Cc1ccc([C@H]2CCC[C@@H](CNc3ncnc(C(=O)N4CCC(N5CCC(N(C)S(C)(=O)=O)CC5)CC4)c3C)O2)cc1 [Example 19]
276 nM	CO[C@H]1COCC[C@H]1NC1CCN(C(=O)c2ncnc(NC[C@@H]3CCC[C@H](c4ccc(C)cc4)O3)c2C)CC1 [Example 31]
53 nM	Cc1c(NC[C@H]2CCC[C@@H](c3ccccc3)O2)ncnc1C(=O)N1CCC(N2CCC(N(C)S(C)(=O)=O)CC2)CC1 [Example 11]
2 nM	CO[C@H]1COCC[C@H]1NC1CCN(C(=O)c2cc(NC[C@H]3CCC[C@@H](c4ccc(C)cc4)O3)nc(C(F)(F)F)n2)CC1 [Example 53h]

Ki	SMILES
3 nM	CO[C@@H]1COCC[C@@H]1NC1CCN(C(=O)c2ncnc(NC[C@H]3CCC[C@@H](c4ccc(Cl)cc4)O3)c2C)CC1 [Example 41]
9 nM	CO[C@@H]1COCC[C@@H]1NC1CCN(C(=O)c2nccc(NC[C@H]3CCC[C@@H](c4ccc(C)cc4)O3)c2C)CC1 [Example 53k]
333 nM	CO[C@H]1COCC[C@H]1NC1CCN(C(=O)c2ncnc(NC[C@@H]3CCC[C@H](c4cccc(C)c4)O3)c2C)CC1 [Example 32]
0.8 nM	CO[C@H]1COCC[C@H]1NC1CCN(C(=O)c2nc(C(F)(F)F)nc(NC[C@H]3CCC[C@@H](c4ccccc4)O3)c2C)CC1 [Example 53ah]
16 nM	CO[C@@H]1COCC[C@@H]1NC1CCN(C(=O)c2ccnc(NC[C@H]3CCC[C@@H](c4ccccc4)O3)c2C)CC1 [Example 53g]
9 nM	CO[C@H]1COCC[C@H]1NC1CCN(C(=O)c2nc(C)nc(NC[C@H]3CCC[C@@H](c4cccc(C)c4)O3)c2C)CC1 [Example 50]
3 nM	COc1nc(NC[C@H]2CCC[C@@H](c3ccc(C)cc3)O2)c(C)c(C(=O)N2CCC(N[C@@H]3CCOC[C@@H]3OC)CC2)n1 [Example 53z]
12 nM	CCS(=O)(=O)N(C)C1CCN(C2CCN(C(=O)c3ncnc(NC[C@H]4CCC[C@@H](c5ccc(Cl)cc5)O4)c3C)CC2)CC1 [Example 27]
0.7 nM	Cc1c(NC[C@H]2CCC[C@@H](c3ccc(OC(F)(F)F)cc3)O2)ncnc1C(=O)N1CCC(N[C@H]2CCOC[C@H]2F)CC1 [Example 53aj]
6 nM	CO[C@@H]1COCC[C@@H]1NC1CCN(C(=O)c2ncnc(NC[C@H]3CCC[C@@H](c4ccccc4)O3)c2C)CC1 [Example 38]
4 nM	CO[C@H]1COCC[C@H]1NC1CCN(C(=O)c2cc(NC[C@H]3CCC[C@@H](c4ccc(C)cc4)O3)ncn2)CC1 [Example 28h]
8 nM	COc1nc(NC[C@H]2CCC[C@@H](c3ccccc3)O2)c(C)c(C(=O)N2CCC(N[C@@H]3CCOC[C@@H]3OC)CC2)n1 [Example 53af]
10 nM	Cc1ccc([C@@H]2CCC[C@H](CNc3nc(C)nc(C(=O)N4CCC(N5CCC(N(C)S(C)(=O)=O)CC5)CC4)c3C)O2)cc1 [Example 18]
13 nM	Cc1ccc([C@@H]2CCC[C@H](CNc3ncnc(C(=O)N4CCC(N5CCC(NS(C)(=O)=O)CC5)CC4)c3C)O2)cc1 [Example 9]
1 nM	CO[C@@H]1COCC[C@@H]1NC1CCN(C(=O)c2cc(NC[C@H]3CCC[C@@H](c4ccc(OC(F)(F)F)cc4)O3)ncn2)CC1 [Example 28m]
8 nM	CO[C@@H]1COCC[C@@H]1NC1CCN(C(=O)c2nc(C)nc(NC[C@H]3CCC[C@@H](c4cccc(C)c4)O3)c2C)CC1 [Example 51]
2 nM	CO[C@@H]1COCC[C@@H]1NC1CCN(C(=O)c2cc(NC[C@H]3CCC[C@@H](c4ccc(C)cc4)O3)nc(C(F)(F)F)n2)CC1 [Example 53i]
12 nM	Cc1ccc([C@H]2CCC[C@@H](CNc3ncnc(C(=O)N4CCC(N5CCC(N(C)S(C)(=O)=O)CC5)CC4)c3C)O2)cc1F [Example 28d]
11 nM	Cc1cccc([C@@H]2CCC[C@H](CNc3nc(C)nc(C(=O)N4CCC(N5CCC(N(C)S(C)(=O)=O)CC5)CC4)c3C)O2)c1 [Example 22]
0.4 nM	COc1nc(NC[C@H]2CCC[C@@H](c3ccc(OC(F)(F)F)cc3)O2)c(C)c(C(=O)N2CCC(N[C@H]3CCOC[C@H]3OC)CC2)n1 [Example 53ae]
0.8 nM	Cc1c(NC[C@H]2CCC[C@@H](c3ccc(OC(F)(F)F)cc3)O2)ncnc1C(=O)N1CCC(N[C@@H]2CCOC[C@@H]2F)CC1 [Example 53ak]
0.8 nM	COc1nc(NC[C@H]2CCC[C@@H](c3ccc(C(F)(F)F)cc3)O2)cc(C(=O)N2CCC(N[C@H]3CCOC[C@H]3OC)CC2)n1 [Example 53p]
